Data reported in patent publication US20210330611A1, “THERAPY FOR NEUROLOGICAL DISEASES/DISORDERS” (priority 2020, published 2021).
Where two headings read alike, the source gives them in different places.

Experiments:
[1] = tested on: fibrin-induced microglia activation; test: Image-based assay of fibrin-induced microglia activation (HTS and dose response); assay type: cell-based, rat; settings: for inhibition at 10 µM: Rattus norvegicus, Microglia, read-out: Fibrin % inhibition
[2] = tested on: LPS-induced microglia activation; test: Image-based assay of LPS-induced microglia activation (HTS and dose response); assay type: cell-based, rat
[3] = tested on: fibrin- and LPS-induced microglia activation; test: cells; assay type: cell-based, rat
primary rat microglia [4] = tested on: primary rat microglia;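 as to Fibrin % cell toxicity: share of dead cells sized under 150 µm2 at 10 µM in fibrin-stimulated microglia HTS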
primary rat microglia [5] = tested on: primary rat microglia; remark: listed apart in the source;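 as to Fibrin % cell toxicity: share of dead cells sized under 150 µm2 at 10 µM in fibrin-stimulated microglia HTS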
[6] = Rattus norvegicus, Microglia, read-out: LPS % inhibition
[7] = primary microglia HTS, fibrin stimulation, increased cell size (>800 μm^2) as marker of activation
[8] = Rattus norvegicus, Microglia, 48 h, primary microglia HTS, LPS stimulation; increased cell size (>800 μm^2) as marker of activation; read-out: LPS % inhibition
[9] = quadrant by fibrin and LPS inhibition in HTS of 1907 compounds
[10] = primary HTS, 10 μM, fibrin-stimulated primary microglia
[11] = primary microglia HTS, 10 μM, fibrin-stimulated, cell size >800 μm^2 as marker of activation
[12] = Rattus norvegicus, Microglia, primary microglia HTS, 10 μM, LPS-stimulated, cell size >800 μm^2 as marker of activation; read-out: LPS % inhibition
[13] = HTS of 1907 compounds, quadrant by fibrin and LPS inhibition
[14] = Rattus norvegicus, Microglia, 48 h, read-out: LPS % inhibition
[15] = primary microglia HTS, fibrin stimulation, compounds at 10 μM
[16] = Rattus norvegicus, Microglia, primary microglia HTS, LPS stimulation, compounds at 10 μM; read-out: LPS % inhibition
[17] = quadrant by fibrin and LPS inhibition, HTS at 10 μM
[18] = primary microglia HTS, fibrin stimulation, cell size >800 μm2 as marker of activation
[19] = classification by fibrin and LPS inhibition in HTS
[20] = primary microglia HTS, fibrin stimulation, activation = cell size >800 μm2
[21] = Rattus norvegicus, Microglia, 48 h, primary microglia HTS, LPS stimulation, activation = cell size >800 μm2; read-out: LPS % inhibition

Compound	inhibition at 10 µM [1] [%]	inhibition at 10 µM [2, 6] [%]	Quadrant (FIG. 5b) [3]	Fibrin % cell toxicity (primary rat microglia [4]; rat) [%]	LPS % cell toxicity (primary rat microglia [5]; rat) [%]	other results
CN(C)[C@@H]1C(O)=C(C(N)=O)C(=O)[C@@]2(O)C(O)=C3C(=O)c4c(O)cccc4[C@@](C)(O)[C@H]3C[C@@H]12 [Tetracycline]	7	19	Q4	0	0	–
CN(C)c1ccc(C(=C2C=CC(=[N+](C)C)C=C2)c2ccc(N(C)C)cc2)cc1 [Gentian Violet]	–	–	–	38	73	inhibition at 10 µM [1, 7]: 117%; inhibition at 10 µM [2, 8]: 118%; Quadrant (FIG. 5b) [3, 9]: Q2
CCOP(=S)(OCC)Oc1nc(Cl)c(Cl)cc1Cl [Chlorpyrifos]	–	–	–	1	0	inhibition at 10 µM [1, 10]: -7%; inhibition at 10 µM ([2]; Rattus norvegicus, Microglia, primary HTS, 10 μM, LPS-stimulated primary microglia; read-out: LPS % inhibition): 1%; Quadrant (FIG. 5b) ([3]; primary HTS, 10 μM): Q4
O=C(O)CCC(=O)OC[C@@H](NC(=O)C(Cl)Cl)[C@H](O)c1ccc([N+](=O)[O-])cc1 [CHLOR[…]]	24	14	Q4	2	1	–
CC(C)C[C@H](NC(=O)[C@H](Cc1ccccc1)NC(=O)c1cnccn1)B(O)O [Bortezomib]	–	–	–	86	56	inhibition at 10 µM [1, 7]: 106%; inhibition at 10 µM [2, 8]: 106%; Quadrant (FIG. 5b) [3, 9]: Q2
Nc1ccc(S(=O)(=O)Nc2ccccn2)cc1 [Sulfapyridine]	–	–	–	1	0	inhibition at 10 µM [1, 11]: -37%; inhibition at 10 µM [2, 12]: 20%; Quadrant (FIG. 5b) [3, 13]: Q4
CN(C)CCCN1c2ccccc2CCc2ccc(Cl)cc21 [Clomipramine]	-1	32	Q4	1	1	–
CN(C/C=C/c1ccccc1)Cc1cccc2ccccc12 [Naftifine]	-12	–	Q4	0	0	inhibition at 10 µM [2, 14]: 3%
Nc1ccn([C@H]2CC[C@@H](CO)O2)c(=O)n1 [Zalcitabine]	–	–	–	0	0	inhibition at 10 µM [1, 11]: -10%; inhibition at 10 µM [2, 12]: 11%; Quadrant (FIG. 5b) [3, 13]: Q4
CC(C)CN(C[C@@H](O)[C@H](Cc1ccccc1)NC(=O)O[C@H]1CCOC1)S(=O)(=O)c1ccc(N)cc1 [Amprenavir]	–	–	–	1	0	inhibition at 10 µM [1, 15]: -10%; inhibition at 10 µM [2, 16]: 6%; Quadrant (FIG. 5b) [3, 17]: Q4
CCC(COC(=O)c1cc(OC)c(OC)c(OC)c1)(c1ccccc1)N(C)C (stereo not shown) [Trimebutine]	–	–	–	1	0	inhibition at 10 µM [1, 11]: -11%; inhibition at 10 µM [2, 12]: 13%; Quadrant (FIG. 5b) [3, 13]: Q4
CNNCc1ccc(C(=O)NC(C)C)cc1 [Procarbazine]	–	–	–	1	0	inhibition at 10 µM [1, 18]: -21%; inhibition at 10 µM ([2]; Rattus norvegicus, Microglia, 48 h; read-out: LPS % inhibition): 9%; Quadrant (FIG. 5b) [3, 19]: Q4
CC(=O)O[C@H]1C(=O)[C@@]2(C)[C@H]([C@H](OC(=O)c3ccccc3)[C@]3(O)C[C@H](OC(=O)[C@H](O)[C@@H](NC(=O)c4ccccc4)c4ccccc4)C(C)=C1C3(C)C)[C@]1(OC(C)=O)CO[C@@H]1C[C@@H]2O [Taxol, Paclitaxel]	–	–	–	–	–	Fibrin % inhibition [1, 11]: 45%; LPS % inhibition ([2]; primary microglia HTS, 10 μM, LPS-stimulated, cell size >800 μm^2 as marker of activation): 19%; Quadrant (FIG. 5b) [3, 13]: Q4; Fibrin % cell toxicity (primary rat microglia [4]): 1%; LPS % cell toxicity (primary rat microglia [5]): 1%
O=C(O)CC(O)(CC(=O)O)C(=O)O [Citric Acid]	-36	-6	Q4	1	0	–
NCCS [Cysteamine]	9	12	Q4	0	0	–
COc1ccc2c(c1)c(CC(=O)O)c(C)n2C(=O)c1ccc(Cl)cc1 [Indomethacin]	–	–	–	0	0	inhibition at 10 µM [1, 20]: -56%; inhibition at 10 µM [2, 21]: 13%; Quadrant (FIG. 5b) [3, 9]: Q4
CO/N=C(\C(=O)N[C@@H]1C(=O)N2C(C(=O)O)=C(COC(N)=O)CS[C@H]12)c1ccco1 [Cefuroxime]	–	–	–	1	0	Fibrin % inhibition [1, 10]: 16%; LPS % inhibition ([2]; primary HTS, 10 μM, LPS-stimulated primary microglia): 2%; Quadrant (FIG. 5b) ([3]; primary HTS, 10 μM): Q4
NC(CO)(CO)CO [Tris]	–	–	Q4	–	–	Fibrin % inhibition ([1]; 10 µM): −18%; LPS % inhibition ([2]; 10 µM): 41%; Fibrin % cell toxicity (primary rat microglia [4]): 1%; LPS % cell toxicity (primary rat microglia [5]): 1%
CC/C(=C(/CC)c1ccc(O)cc1)c1ccc(O)cc1 [Diethylstilbestrol]	-26	16	Q4	1	0	–
CCOC(=O)c1ncn2c1CN(C)C(=O)c1cc(F)ccc1-2 [Flumazenil]	–	–	–	1	1	inhibition at 10 µM [1, 20]: 5%; inhibition at 10 µM [2, 21]: 14%; Quadrant (FIG. 5b) [3, 9]: Q4
Oc1cccc(O)c1 [Resorcinol]	–	–	–	0	0	inhibition at 10 µM [1, 18]: -4%; inhibition at 10 µM ([2]; Rattus norvegicus, Microglia, 48 h, primary microglia HTS, LPS stimulation, cell size >800 μm2 as marker of activation; read-out: LPS % inhibition): 8%; Quadrant (FIG. 5b) [3, 19]: Q4
C1CNCCN1 [Piperazine]	-3	–	Q4	0	0	inhibition at 10 µM [2, 14]: 16%
Brc1c(NC2=NCCN2)ccc2nccnc12 [Brimonidine]	-36	-9	Q4	1	0	–
CN(C)C(=S)SSC(=S)N(C)C [Thiram]	–	–	–	91	64	inhibition at 10 µM [1, 15]: 109%; inhibition at 10 µM [2, 16]: 126%; Quadrant (FIG. 5b) [3, 17]: Q2
CC1CCc2c(N3CCC(O)CC3)c(F)cc3c(=O)c(C(=O)O)cn1c23 (stereo not shown) [Nadifloxacin]	–	–	–	1	0	inhibition at 10 µM [1, 7]: -14%; inhibition at 10 µM [2, 8]: 10%; Quadrant (FIG. 5b) [3, 9]: Q4
CN(C)CCC=C1c2ccccc2CCc2ccccc21 [Amitriptyline]	14	30	Q4	1	1	–
